Results: patent US10874669B2 (WAYNE STATE UNIVERSITY, priority 2018, dated 2020)

Experiments:
cloned D3 receptors = cloned D3 receptors (Rattus norvegicus (Rat), UniProt P19020); assay: [3H]spiperone displacement, cloned D3 receptors in HEK cells; type: binding; conditions: means±SEM for 3 experiments
From the text: The following table provides inhibition constants for displacing [3H]spiperone binding to the cloned D2L and D3 receptors expressed in HEK cells. Results are means±SEM for 3 experiments each performed in triplicate. NR=Not repeated.

cloned D2L receptors = cloned D2L receptors (Rattus norvegicus (Rat), UniProt P61169); assay: [3H]spiperone displacement, cloned D2L receptors in HEK cells; type: binding; conditions: means±SEM for 3 experiments
Sequence of cloned D2L receptors (P61169 whole entry): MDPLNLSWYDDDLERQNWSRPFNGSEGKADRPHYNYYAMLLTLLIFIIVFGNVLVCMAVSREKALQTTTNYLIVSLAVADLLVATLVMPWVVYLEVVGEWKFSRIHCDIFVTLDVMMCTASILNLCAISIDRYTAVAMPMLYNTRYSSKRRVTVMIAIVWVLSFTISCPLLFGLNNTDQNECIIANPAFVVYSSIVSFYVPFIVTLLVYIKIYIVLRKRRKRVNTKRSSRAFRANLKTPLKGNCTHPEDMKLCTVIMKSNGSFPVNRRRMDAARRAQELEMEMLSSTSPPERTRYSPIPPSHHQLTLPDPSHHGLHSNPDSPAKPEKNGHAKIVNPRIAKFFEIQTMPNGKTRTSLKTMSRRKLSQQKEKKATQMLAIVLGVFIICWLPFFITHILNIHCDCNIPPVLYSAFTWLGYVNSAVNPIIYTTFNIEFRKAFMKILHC
From the text: The following table provides inhibition constants for displacing [3H]spiperone binding to the cloned D2L and D3 receptors expressed in HEK cells. […] NR=Not repeated.

cloned rat D3 receptors = cloned rat D3 receptors (Rattus norvegicus (Rat), UniProt P19020); assay: [3H]spiroperidol competition binding, rat D3 receptors in HEK-293 cells; conditions: rat D3 in HEK-293 cells; values of Table 3
Sequence of cloned rat D3 receptors (P19020 whole entry): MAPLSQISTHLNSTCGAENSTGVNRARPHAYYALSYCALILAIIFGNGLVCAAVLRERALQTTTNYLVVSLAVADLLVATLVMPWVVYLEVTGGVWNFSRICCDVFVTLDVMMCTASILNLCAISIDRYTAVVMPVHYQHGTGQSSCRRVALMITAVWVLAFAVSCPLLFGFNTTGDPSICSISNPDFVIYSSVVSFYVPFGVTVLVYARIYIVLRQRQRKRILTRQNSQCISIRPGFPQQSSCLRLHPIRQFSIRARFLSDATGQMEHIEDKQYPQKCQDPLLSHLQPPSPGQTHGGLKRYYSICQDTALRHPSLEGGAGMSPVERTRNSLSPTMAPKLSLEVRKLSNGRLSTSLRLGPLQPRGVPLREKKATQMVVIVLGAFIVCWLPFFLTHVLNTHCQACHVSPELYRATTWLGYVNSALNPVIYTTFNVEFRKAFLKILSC
Description: A well established radioligand competition assay was carried out to evaluate binding affinity of the test compounds and were compared with that of the reference agent (S)-5-OH-DPAT (Table 3). Binding affinity to rat DA D2 and D3 receptors expressed in HEK-293 cells was determined as described by us previously. […] This indicated highest tolerance of the 4-substituted carbazole derivative for interaction with the D2 and D3 receptors.
(§1) All these procedures were described by us previously.

cloned rat D2L receptors = cloned rat D2L receptors (Rattus norvegicus (Rat), UniProt P61169); assay: [3H]spiroperidol competition binding, rat D2L receptors in HEK-293 cells; conditions: values of Table 3; for Ki: rat D2 in HEK-293 cells; for D2/D3: ratio of Ki values
Sequence of cloned rat D2L receptors (P61169 whole entry): as the sequence (P61169 whole entry) above
From the text: as §1

human DA D2 receptors = human DA D2 receptors (Homo sapiens (Human), UniProt P14416); assay: [35S]GTPγS binding stimulation, human D2 receptors in CHO cells; type: biochemical
Sequence of human DA D2 receptors (P14416 whole entry): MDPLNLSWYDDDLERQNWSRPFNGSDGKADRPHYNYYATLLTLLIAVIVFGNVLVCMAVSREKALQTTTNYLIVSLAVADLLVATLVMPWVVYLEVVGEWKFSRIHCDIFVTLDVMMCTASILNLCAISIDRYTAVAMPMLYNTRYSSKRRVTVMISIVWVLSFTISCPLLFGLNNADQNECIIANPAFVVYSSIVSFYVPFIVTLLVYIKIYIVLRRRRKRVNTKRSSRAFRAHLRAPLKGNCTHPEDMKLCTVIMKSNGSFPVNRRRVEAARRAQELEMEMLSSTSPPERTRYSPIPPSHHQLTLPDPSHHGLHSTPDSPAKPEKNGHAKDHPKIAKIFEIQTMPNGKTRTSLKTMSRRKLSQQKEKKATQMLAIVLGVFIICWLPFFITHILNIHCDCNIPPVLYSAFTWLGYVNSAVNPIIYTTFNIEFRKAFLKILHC

human DA D3 receptors = human DA D3 receptors (Homo sapiens (Human), UniProt P35462); assay: [35S]GTPγS binding stimulation, human D3 receptors in CHO cells; type: biochemical
Sequence of human DA D3 receptors (P35462 whole entry): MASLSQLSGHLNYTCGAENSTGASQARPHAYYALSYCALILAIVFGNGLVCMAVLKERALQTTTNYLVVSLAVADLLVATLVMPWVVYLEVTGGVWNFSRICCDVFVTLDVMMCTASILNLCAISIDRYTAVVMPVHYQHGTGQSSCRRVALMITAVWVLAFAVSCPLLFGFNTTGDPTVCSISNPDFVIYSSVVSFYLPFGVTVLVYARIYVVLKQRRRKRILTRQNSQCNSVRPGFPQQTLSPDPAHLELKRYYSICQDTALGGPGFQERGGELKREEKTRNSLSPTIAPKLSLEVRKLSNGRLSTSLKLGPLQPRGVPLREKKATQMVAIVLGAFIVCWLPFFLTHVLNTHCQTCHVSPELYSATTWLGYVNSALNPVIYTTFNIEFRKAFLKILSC

[1] = test system: reserpine-induced hypolocomotion in rats; assay: Reversal of reserpine-induced hypolocomotion in rats; conditions: 10 μMol/kg, ip
Description: In this model depletion of catecholamines by reserpine results in catalepsy in rats.
The following commercially available drug was used in the experiment: reserpine hydrochloride (Alfa Aesar). […] The compounds for this study were administered in a volume of 0.1-0.2 mL for subcutaneous administration and 0.5-0.7 ml for interaperitoneal administration into each rat.
In rodent studies, animals were male and female Sprague-Dawley rats from Harlan (Indianapolis, Ind.) weighing 220-225 g unless otherwise specified. Animals were maintained in sawdust-lined cages in a temperature and humidity controlled environment at 22±1° C. and 60±5% humidity, respectively. A 12 h light/dark cycle was maintained, with lights on from 6:00 a.m. to 6:00 p.m. They were group-housed with unrestricted access to food and water. All experiments were performed during the light component.
Reserpine (5.0 mg/kg, sc) was administered 18 h before the injection of drug or vehicle. The rats were placed individually in the chambers for 1 h for acclimatization before administration of the test drugs or vehicle. Immediately after administration of drug or vehicle, animals were individually placed in Opto-Varimex 4 animal activity monitor chamber (Columbus Instruments, Ohio, USA) to start measuring locomotor activity. Locomotion was monitored for 6 h. […] The data were presented as horizontal activity (HACTV). […] The data were analyzed by one-way analysis of variance (ANOVA) followed by Dunnett's post hoc test.

[2] = compared with maximum stimulation by full agonist DA

Sequence of cloned D3 receptors (P19020 whole entry): as the sequence (P19020 whole entry) above

| SMILES | Ki (cloned D3 receptors) [nM] | Ki (cloned D2L receptors) [nM] | Ki (cloned rat D3 receptors) [nM] | Ki (cloned rat D2L receptors) [nM] | D2/D3 (cloned rat D2L receptors) | further results |
| --- | --- | --- | --- | --- | --- | --- |
| CCCN(CCCCCc1ccc(O)c(OC)c1)[C@@H]1CCc2nc(N)sc2C1 [(−)-23, (R)-4-(5-((2-Amino-4,5,6,7-tetrahydrobenzo[d]thiazol-6-yl)(propyl)amino)pentyl)-2-methoxyphenol] | 1.57 ± 0.41 | 68.3 ± 12 |  |  |  |  |
| CCCN(CCCCCc1ccc(O)c(O)c1)[C@@H]1CCc2nc(N)sc2C1 [(−)-34, (R)-4-(5-((2-Amino-4,5,6,7-tetrahydrobenzo[d]thiazol-6-yl)(propyl)amino)pentyl)benzene-1,2-diol] | 1.42 ± 0.14 | 65.7 ± 11.7 |  |  |  |  |
| CCCN(CCCCCc1cc(O)ccc1O)[C@@H]1CCc2nc(N)sc2C1 [(−)-36, (R)-2-(5-((2-Amino-4,5,6,7-tetrahydrobenzo[d]thiazol-6-yl)(propyl)amino)pentyl)benzene-1,4-diol] | 0.78 ± 0.2 |  |  |  |  |  |
| CCCN(CCN1CCN(c2ccc3c(c2)[nH]c2ccccc23)CC1)[C@H]1CCc2nc(N)sc2C1 [(−)-91a, (S)—N^6-(2-(4-(9H-carbazol-2-yl)piperazin-1-yl)ethyl)-N^6-propyl-4,5,6,7-tetrahydrobenzo[d]thiazole-2,6-diamine] |  |  | 3.94 | 504 | 128 |  |
| CCCN(CCN1CCN(c2cccc3[nH]c4ccccc4c23)CC1)[C@H]1CCc2nc(N)sc2C1 [(−)-91c, (S)—N^6-(2-(4-(9H-carbazol-4-yl)piperazin-1-yl)ethyl)-N^6-propyl-4,5,6,7-tetrahydrobenzo[d]thiazole-2,6-diamine] |  |  |  |  |  | EC50 (human DA D2 receptors; CHO cells, read-out: EC50 (GTPγS), D2): 22.2 nM; Emax (human DA D2 receptors; [2]): 57%; EC50 (human DA D3 receptors; CHO cells, read-out: EC50 (GTPγS), D3): 1.67 nM; Emax (human DA D3 receptors; [2]): 82% |
| CCCN(CCN1CCN(c2ccc3[nH]c4ccccc4c3c2)CC1)[C@H]1CCc2c(O)cccc2C1 [(−)-95b, (S)-6-((2-(4-(9H-carbazol-3-yl)piperazin-1-yl)ethyl)(propyl)amino)-5,6,7,8-tetra-hydronaphthalen-1-ol] |  |  | 1.94 | 61.6 |  |  |
| CCCN(CCN1CCN(CCn2c3ccccc3c3ccccc32)CC1)[C@H]1CCc2nc(N)sc2C1 [(−)-101, (S)—N^6-(2-(4-(2-(9H-carbazol-9-yl)ethyl)piperazin-1-yl)ethyl)-N^6-propyl-4,5,6,7-tetrahydrobenzo[d]thiazole-2,6-diamine] |  |  | 7.18 | 82.6 | 12 |  |
| CCCN(CCCc1ccc(O)c(OC)c1)C1CCc2nc(N)sc2C1 (centres unmarked) [Compound 22, 4-(3-((2-Amino-4,5,6,7-tetrahydrobenzo[d]thiazol-6-yl)(propyl)amino)propyl)-2-methoxyphenol] | 15.8 ± 2 | 2400 |  |  |  |  |
| CCCN(CCCCCc1ccc(O)c(OC)c1)C1CCc2nc(N)sc2C1 (centres unmarked) [Compound 23, 4-(5-((2-Amino-4,5,6,7-tetrahydrobenzo[d]thiazol-6-yl)(propyl)amino)pentyl)-2-methoxyphenol] |  | 175 ± 8 |  |  |  |  |
| CCCN(CCCCCc1ccc(O)c(O)c1)C1CCc2nc(N)sc2C1 (centres unmarked) [Compound 34, 4-(5-((2-Amino-4,5,6,7-tetrahydrobenzo[d]thiazol-6-yl)(propyl)amino)pentyl)benzene-1,2-diol] | 2.59 ± 0.31 | 116 ± 8 |  |  |  |  |
| CCCN(CCCCCc1cc(O)ccc1O)C1CCc2nc(N)sc2C1 (centres unmarked) [Compound 35, 2-(5-((2-Amino-4,5,6,7-tetrahydrobenzo[d]thiazol-6-yl)(propyl)amino)pentyl)benzene-1,4-diol] | 1.01 ± 0.28 |  |  |  |  |  |
| CCCN(CCC/C=C\c1ccc(O)c(OC)c1)C1CCc2nc(N)sc2C1 (centres unmarked) [Compound 39, (Z)-4-(5-((2-amino-4,5,6,7-tetrahydrobenzo[d]thiazol-6-yl)(propyl)amino)pent-1-en-1-yl)-2-methoxyphenol] | 23.3 ± 4 | 233 ± 8 |  |  |  |  |
| CCCN(CCCC1(O)C=CC(O)=CC1)C1CCc2nc(N)sc2C1 (centres unmarked) [Compound 54, 4-(3-((2-Amino-4,5,6,7-tetrahydrobenzo[d]thiazol-6-yl)(propyl)amino)propyl)-benzene-1,4-diol] | 11.9 ± 1.9 |  |  |  |  |  |
| CCCN(C/C=C/c1ccc(O)c(OC)c1)C1CCc2nc(N)sc2C1 (centres unmarked) [Compound 63, (E)-4-(3-((2-amino-4,5,6,7-tetrahydrobenzo[d]thiazol-6-yl)(propyl)amino)prop-1-en-1-yl)-2-methoxyphenol] | 39.1 ± 5.4 | 4630 |  |  |  |  |
| CCCN(CCN1CCN(c2ccc3c(c2)C(=O)C(=O)N3)CC1)[C@H]1CCc2nc(N)sc2C1 [Compound 70] | 14.2 ± 3.8 | 162 ± 7 |  |  |  |  |
| CCCN(CCN1CCN(c2ccc3c(c2)[nH]c2ccccc23)CC1)C1CCc2nc(N)sc2C1 (centres unmarked) [Compound 90a, N^6-(2-(4-(9H-carbazol-2-yl)piperazin-1-yl)ethyl)-N^6-propyl-4,5,6,7-tetrahydrobenzo-[d]thiazole-2,6-diamine] |  |  | 6.18 | 902 | 146 |  |
| CCCN(CCN1CCN(c2ccc3[nH]c4ccccc4c3c2)CC1)C1CCc2nc(N)sc2C1 (centres unmarked) [Compound 90b, N^6-(2-(4-(9H-carbazol-3-yl)piperazin-1-yl)ethyl)-N^6-propyl-4,5,6,7-tetrahydrobenzo[d]thiazole-2,6-diamine] |  |  | 3.12 | 612 | 196 |  |
| CCCN(CCN1CCN(c2cccc3[nH]c4ccccc4c23)CC1)C1CCc2nc(N)sc2C1 (centres unmarked) [Compound 90c, N^6-(2-(4-(9H-carbazol-4-yl)piperazin-1-yl)ethyl)-N^6-propyl-4,5,6,7-tetrahydrobenzo[d]thiazole-2,6-diamine] |  |  | 7.8 | 76.9 | 9.86 |  |
| CCCN(CCN1CCN(CCn2c3ccccc3c3ccccc32)CC1)C1CCc2nc(N)sc2C1 (centres unmarked) [Compound 100, N^6-(2-(4-(2-(9H-carbazol-9-yl)ethyl)piperazin-1-yl)ethyl)-N^6-propyl-4,5,6,7-tetrahydrobenzo[d]thiazole-2,6-diamine] |  |  | 6.6 | 435 | 65.9 |  |
| CCCN(CCC)CCc1cccc2c1CC(=O)N2 [ropinirole, reference compound] |  |  |  |  |  | duration of locomotor activation ([1]; locomotion monitored for 6 h): shorter duration of action; reversal of reserpine-induced akinesia / hypolocomotion (horizontal activity) ([1]; reserpine 5 mg/kg sc, 18 h pretreatment, rats): fast onset of activation of locomotion |
